Values quoted from earlier work in US20100183720A1, “Hetero-assembled hydrogels” (The Board of Trustees of the Leland Stanford Junior …, priority 2008, published 2010).

target: T1, SH3 Domain cSRC (1 SH3 and 1 SH2) (Gallus gallus, UniProt P00523); conditions: read-out: Dissociation constant, Kd
T1 construct: SH3 Domain

Compared with RPLPPTPKY, RKLPPRPSK is 6.1-fold higher in Kd: 12 µM for the first, 73 µM for the second.

RELPPLPRF and RELPPIPVF are within 1.5-fold of each other in Kd: 7.8 µM for the first, 9.6 µM for the second.

In the case of PYHPPLPRR, the Kd is listed as 13 µM.

target: T2, Human Tsg101 UEV domain (Homo sapiens, UniProt Q99816); conditions: read-out: Dissociation constant, Kd (Binding constant)
T2 construct: Human Tsg101 UEV domain
T2 sequence (Q99816 2-145 limits assumed): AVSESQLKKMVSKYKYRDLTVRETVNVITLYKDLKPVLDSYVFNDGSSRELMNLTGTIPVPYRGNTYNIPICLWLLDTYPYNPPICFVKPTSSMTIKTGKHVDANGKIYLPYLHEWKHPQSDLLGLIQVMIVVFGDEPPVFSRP

For “HIV-1 p6 protein: binding partner of Human Tsg101 UEV domain (LQSRPEPTAPPEESFRSGVETTTPPQKQEPIDKELYPLTSLRSLFGNDPSSQ; p6-gag; UniProt P04591 449-500, looked up)”, the Kd is given as 27 ± 5 µM.

target: model group I polyproline peptide; conditions: monomeric units of WW domain bound to model group I polyproline peptide; read-out: apparent dissociation constant

In the case of “Nedd4.3: wild-type WW domain sequence (Protein Data Bank 1I5H), monomeric unit (PLPPGWEERTHTDGRVFFINHNIKKTQWEDPRMQ; Natural WW domain also called Nedd4.3 Kanelis, V., Rotin D. & Forman-Kay, JD (2001) Solution structure of a Nedd4 WW domain-ENaC peptide complex, Nat Struct Biol 8 407-12.)”, the Kd is listed as 11.2 ± 1.2 µM.

target: T3, SH3 Domain (Homo sapiens, UniProt P27986); conditions: read-out: Dissociation constant, Kd
T3 construct: SH3 Domain
T3 sequence (P27986 3-79 limits assumed): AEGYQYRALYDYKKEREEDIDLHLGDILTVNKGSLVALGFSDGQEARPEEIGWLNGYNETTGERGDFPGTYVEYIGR

Going from RKLPARPSK to AKLPPRPSK, the Kd rises from 16.5 ± 0.1 µM to 98 ± 0.2 µM (5.9-fold). The first binds more tightly here.

First: RKLPPAPSK
Second: RKLAPRPSK
The Kd of the first is 4.8-fold lower: 29 ± 2 µM for the first, 140 ± 10 µM for the second. The first binds more tightly here.

Compared with RKAPPRPSK, RALPPRPSK is 3.8-fold lower in Kd: 37 ± 1 µM for the first, 9.7 ± 0.2 µM for the second.

Going from RKLPPRPSK to RKLPPRASK, the Kd rises from 9.1 ± 0.6 µM to 53 ± 6 µM (5.8-fold). The first binds more tightly here.

RKLPPRP and RPLPPRPSK are within 1.5-fold of each other in Kd: 12.8 ± 0.6 µM for the first, 9.1 ± 0.6 µM for the second.

target: T4, PABC Domain (Homo sapiens, UniProt P11940); conditions: SPR; read-out: Dissociation constant, Kd (SPR Kd)
T4 construct: PABC Domain
T4 sequence (P11940 542-619 limits assumed): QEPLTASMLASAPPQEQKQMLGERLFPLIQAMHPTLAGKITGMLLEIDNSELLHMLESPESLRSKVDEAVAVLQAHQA

Going from VVKSNLNPNAKEFVPGVKYGNI to AKPFVPNVHAAEFVPSFLR, the Kd rises from 0.16 µM to 3.1 µM (19-fold). The first binds more tightly here.

Compared with AFSRQLNVNAKPFVPNVHA, LVVKSNLNPNAKEF is 67-fold higher in Kd: 3.9 µM for the first, 260 µM for the second.

First: AFSRQLNVNAKPFVPNVHAAEFVPSFLR
Second: SNLNPNAKEFVPGVKYG
The Kd of the first is 6.8-fold higher: 1.3 µM for the first, 0.19 µM for the second.

LVVKSNLPNAKEFVP and VLMSKLSVNAPEFYPSGYSSSY are within 1.5-fold of each other in Kd: 3 µM for the first, 2.3 µM for the second.

target: T5, SH3 Domain PI3K (1 SH3 and 2 SH2) (Homo sapiens, UniProt P27986); conditions: read-out: Dissociation constant, Kd
T5 construct: SH3 Domain
T5 sequence (P27986 3-79 limits assumed): as the sequence (P27986 3-79 limits assumed) above

RKLPPRPAF and LNKPPLPKR are within 1.5-fold of each other in Kd: 11 µM for the first, 13 µM for the second.

Going from RKLPPRPSK to RALPPLPRY, the Kd rises from 9.1 µM to 17 µM (1.9-fold). The first binds more tightly here.

In the case of RYLPPRPMY, the Kd is listed as 13 µM.

target: T6, Human YAP65 (Yes kinase-associated protein) WW Domain (Homo sapiens, UniProt P46937); conditions: read-out: Dissociation constant, Kd (Binding constant)
T6 construct: WW Domain
T6 sequence (P46937 171-204 limits assumed): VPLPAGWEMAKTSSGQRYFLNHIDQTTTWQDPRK

SPPPYTV and SAPPPYTV are within error of each other in Kd: 47 ± 6 µM for the first, 53 ± 17 µM for the second.

GTPPPPYTVG and SPPPAYTV are within error of each other in Kd: 52 ± 6 µM for the first, 63 ± 17 µM for the second.

In the case of SPPPPFTV, the Kd is given as 118 ± 17 µM.
